# Patent US12454529B2, “Piperazine cyclic ureas” (SIRONAX LTD., priority 2020, dated 2025)
# System: HT-29 cells
# Assay: HT-29 cell necrosis/necroptosis inhibition (TNF-α + SMAC mimetic + zVAD-FMK; CellTiter-Glo cell viability)
# Format: cell-based
# Settings: Homo sapiens, HT-29, 20 h, read-out: EC50 (Cell activity; Necrosis/Necroptosis Inhibitory Activity, Compounds 1-142)
# In short: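 Necroptosis was driven by TNF-α 10 ng/ml plus SMAC mimetic 6 μM and zVAD-FMK 10 μM in serum-free medium, with compounds as a 10-point threefold titration. After 20 h at 37 °C, ATP-based luminescence was read; EC50 values are geometric means of duplicate curves.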
row,Structure (SMILES),EC50 [µM]
1,"Cc1nn(CC#N)c(C)c1-c1nc(N2CCN(C(=O)N3N=CC[C@H]3c3cc(F)cc(C#N)c3)CC2)ncc1F [Compound 136, (S)-3-(1-(4-(4-(1-(cyanomethyl)-3,5-dimethyl-1H-pyrazol-4-yl)-5-fluoropyrimidin-2-yl)piperazine-1-carbonyl)-4,5-dihydro-1H-pyrazol-5-yl)-5-fluorobenzonitrile]",0.0001 to 0.1

# Same assay, conditions: Homo sapiens, HT-29, 20 h, read-out: EC50 (Cell activity; Necrosis/Necroptosis Inhibitory Activity, Compounds 143-323)
row,Structure (SMILES),EC50 [µM]
1,"CC(=O)N1Cc2c(-c3nc(N4CCN(C(=O)N5N=CC[C@H]5c5cc(F)cc(C#N)c5)CC4)ncc3F)nn(C)c2C1 [Compound 152, (S)-3-(1-(4-(4-(5-acetyl-1-methyl-1,4,5,6-tetrahydropyrrolo[3,4-c]pyrazol-3-yl)-5-fluoropyrimidin-2-yl)piperazine-1-carbonyl)-4,5-dihydro-1H-pyrazol-5-yl)-5-fluorobenzonitrile]",1 to 10

# Same assay, conditions: Homo sapiens; HT-29 cells, TNF-α 10 ng/ml + SMAC mimetic 6 μM + zVAD-FMK 10 μM, 20 hours; geometric mean, 10 points in duplicate; read-out: EC50 (Cell activity; Necrosis/Necroptosis Inhibitory Activity, Compounds 1-142)
row,Structure (SMILES),EC50 [µM]
1,"O=C(N1CCN(c2nccc(-c3cc[nH]n3)n2)CC1)N1N=CC[C@H]1c1cncc(F)c1 [Compound 36, (S)-(4-(4-(1H-pyrazol-3-yl)pyrimidin-2-yl)piperazin-1-yl)(5-(5-fluoropyridin-3-yl)-4,5-dihydro-1H-pyrazol-1-yl)methanone]",0.0001 to 0.1
2,"Cc1nn(CCO)c(C)c1-c1nc(N2CCN(C(=O)N3N=CC[C@H]3c3cc(F)cc(C#N)c3)CC2)ncc1F [Compound 124, (S)-3-fluoro-5-(1-(4-(5-fluoro-4-(1-(2-hydroxyethyl)-3,5-dimethyl-1H-pyrazol-4-yl)pyrimidin-2-yl)piperazine-1-carbonyl)-4,5-dihydro-1H-pyrazol-5-yl)benzonitrile]",0.0001 to 0.1
3,"O=C(N1CCN(c2nccc(-n3nnnc3C(F)(F)F)n2)CC1)N1N=CC[C@H]1c1ccccc1 [Compound 104, (S)-(5-phenyl-4,5-dihydro-1H-pyrazol-1-yl)(4-(4-(5-(trifluoromethyl)-1H-tetrazol-1-yl)pyrimidin-2-yl)piperazin-1-yl)methanone]",0.0001 to 0.1
4,"Cc1nn(CC(N)=O)nc1-c1nc(N2CCN(C(=O)N3N=CC[C@H]3c3cc(F)cc(F)c3)CC2)ncc1F [Compound 32, (S)-2-(4-(2-(4-(5-(3,5-difluorophenyl)-4,5-dihydro-1H-pyrazole-1-carbonyl)piperazin-1-yl)-5-fluoropyrimidin-4-yl)-5-methyl-2H-1,2,3-triazol-2-yl)acetamide]",0.0001 to 0.1
5,"N#Cc1cc(F)cc([C@@H]2CC=NN2C(=O)N2CCN(c3ncc(F)c(-n4cnc(C#N)n4)n3)CC2)c1 [Compound 125, (S)-1-(2-(4-(5-(3-cyano-5-fluorophenyl)-4,5-dihydro-1H-pyrazole-1-carbonyl)piperazin-1-yl)-5-fluoropyrimidin-4-yl)-1H-1,2,4-triazole-3-carbonitrile]",0.0001 to 0.1
6,"Cc1nnn(C)c1-c1nc(N2CCN(C(=O)N3N=CC[C@H]3c3cc(F)cc(F)c3)CC2)ncc1F [Compound 71, (S)-(5-(3,5-difluorophenyl)-4,5-dihydro-1H-pyrazol-1-yl)(4-(4-(1,4-dimethyl-1H-1,2,3-triazol-5-yl)-5-fluoropyrimidin-2-yl)piperazin-1-yl)methanone]",0.0001 to 0.1
7,"O=C(N1CCN(c2nccc(-n3nnnc3C(F)(F)F)n2)CC1)N1N=CC[C@H]1c1cccc(F)c1 [Compound 103, (S)-(5-(3-fluorophenyl)-4,5-dihydro-1H-pyrazol-1-yl)(4-(4-(5-(trifluoromethyl)-1H-tetrazol-1-yl)pyrimidin-2-yl)piperazin-1-yl)methanone]",0.0001 to 0.1
8,"Cc1n[nH]c(C)c1-c1nc(N2CCN(C(=O)N3N=CC[C@H]3c3cc(F)cc(F)c3)CC2)ncc1F [Compound 93, (S)-(5-(3,5-difluorophenyl)-4,5-dihydro-1H-pyrazol-1-yl)(4-(4-(3,5-dimethyl-1H-pyrazol-4-yl)-5-fluoropyrimidin-2-yl)piperazin-1-yl)methanone]",0.0001 to 0.1
9,"Cc1noc(C)c1-c1nc(N2CCN(C(=O)N3N=CC[C@H]3c3cc(F)cc(F)c3)CC2)ncc1F [Compound 108, (S)-(5-(3,5-difluorophenyl)-4,5-dihydro-1H-pyrazol-1-yl)(4-(4-(3,5-dimethylisoxazol-4-yl)-5-fluoropyrimidin-2-yl)piperazin-1-yl)methanone]",0.0001 to 0.1
10,"COC(=O)c1c[nH]c(-c2nc(N3CCN(C(=O)N4N=CC[C@H]4c4cc(F)cc(F)c4)CC3)ncc2F)c1 [Compound 12, methyl (S)-5-(2-(4-(5-(3,5-difluorophenyl)-4,5-dihydro-1H-pyrazole-1-carbonyl)piperazin-1-yl)-5-fluoropyrimidin-4-yl)-1H-pyrrole-3-carboxylate]",0.0001 to 0.1
11,"Cc1[nH]nc(CO)c1-c1nc(N2CCN(C(=O)N3N=CC[C@H]3c3cc(F)cc(C#N)c3)CC2)ncc1F [Compound 74, (S)-3-fluoro-5-(1-(4-(5-fluoro-4-(3-(hydroxymethyl)-5-methyl-1H-pyrazol-4-yl)pyrimidin-2-yl)piperazine-1-carbonyl)-4,5-dihydro-1H-pyrazol-5-yl)benzonitrile]",0.0001 to 0.1
12,"Cn1ncc(C#N)c1-c1nc(N2CCN(C(=O)N3N=CC[C@H]3c3cc(F)cc(C#N)c3)CC2)ncc1F [Compound 67, (S)-5-(2-(4-(5-(3-cyano-5-fluorophenyl)-4,5-dihydro-1H-pyrazole-1-carbonyl)piperazin-1-yl)-5-fluoropyrimidin-4-yl)-1-methyl-1H-pyrazole-4-carbonitrile]",0.0001 to 0.1
13,"O=C(N1CCN(c2ncc(F)c(-n3cnc(Cl)n3)n2)CC1)N1N=CC[C@H]1c1cc(F)cc(F)c1 [Compound 24, (S)-(4-(4-(3-chloro-1H-1,2,4-triazol-1-yl)-5-fluoropyrimidin-2-yl)piperazin-1-yl)(5-(3,5-difluorophenyl)-4,5-dihydro-1H-pyrazol-1-yl)methanone]",0.0001 to 0.1
14,"Cc1n[nH]cc1-c1nc(N2CCN(C(=O)N3N=CC[C@H]3c3cc(F)cc(F)c3)CC2)ncc1F [Compound 13, (S)-(5-(3,5-difluorophenyl)-4,5-dihydro-1H-pyrazol-1-yl)(4-(5-fluoro-4-(3-methyl-1H-pyrazol-4-yl)pyrimidin-2-yl)piperazin-1-yl)methanone]",0.0001 to 0.1

# Same assay, conditions: Homo sapiens; HT-29 cells, TNF-α 10 ng/ml + SMAC mimetic 6 μM + zVAD-FMK 10 μM, 20 hours; geometric mean, 10 points in duplicate; read-out: EC50 (Cell activity; Necrosis/Necroptosis Inhibitory Activity, Compounds 143-323)
row,Structure (SMILES),EC50 [µM]
1,"Cc1nc(C)n(-c2nc(N3CCN(C(=O)N4N=CC[C@@H]4c4ncc(C)s4)CC3)ncc2F)n1 [Compound 242, (R)-(4-(4-(3,5-dimethyl-1H-1,2,4-triazol-1-yl)-5-fluoropyrimidinyl)piperazin-1-yl)(5-(5-methylthiazol-2-yl)-4,5-dihydro-1H-pyrazol-1-yl)methanone]",0.0001 to 0.1
2,"Cc1cnc([C@@H]2CC=NN2C(=O)N2CCN(c3ncc(F)c(-c4nc(C#N)nn4C)n3)CC2)s1 [Compound 151, (S)-5-(5-fluoro-2-(4-(5-(5-methylthiazol-2-yl)-4,5-dihydro-1H-pyrazole-1-carbonyl)piperazin-1-yl)pyrimidin-4-yl)-1-methyl-1H-1,2,4-triazole-3-carbonitrile]",0.0001 to 0.1
3,"[2H]C1(c2cc(F)cc(F)c2)CC=NN1C(=O)N1CCN(c2ncc(F)c(-n3nc(C)nc3C)n2)CC1 (stereo not shown) [Compound 262, (5-(3,5-difluorophenyl)-4,5-dihydro-1H-pyrazol-1-yl-5-d)(4-(4-(3,5-dimethyl-1H-1,2,4-triazol-1-yl)-5-fluoropyrimidin-2-yl)piperazin-1-yl)methanone]",0.0001 to 0.1
4,"Cn1nc(C(N)=O)nc1-c1nc(N2CCN(C(=O)N3N=CCC3c3cncc(F)c3)CC2)ncc1F (stereo not shown) [Compound 226, 5-(5-fluoro-2-(4-(5-(5-fluoropyridin-3-yl)-4,5-dihydro-1H-pyrazole-1-carbonyl)piperazin-1-yl)pyrimidin-4-yl)-1-methyl-1H-1,2,4-triazole-3-carboxamide]",0.0001 to 0.1
5,"Cc1cnn(C)c1-c1ncc(F)c(N2CCN(C(=O)N3N=CC[C@H]3c3cc(F)cc(C#N)c3)CC2)n1 [Compound 268, (S)-3-(1-(4-(2-(1,4-dimethyl-1H-pyrazol-5-yl)-5-fluoropyrimidin-4-yl)piperazine-1-carbonyl)-4,5-dihydro-1H-pyrazol-5-yl)-5-fluorobenzonitrile]",0.0001 to 0.1
6,"Cc1nn(S(C)(=O)=O)c(C)c1-c1nc(N2CCN(C(=O)N3N=CC[C@H]3c3cc(F)cc(C#N)c3)CC2)ncc1F [Compound 208, (S)-3-(1-(4-(4-(3,5-dimethyl-1-(methylsulfonyl)-1H-pyrazol-4-yl)-5-fluoropyrimidin-2-yl)piperazine-1-carbonyl)-4,5-dihydro-1H-pyrazol-5-yl)-5-fluorobenzonitrile]",0.0001 to 0.1
7,"Cc1nnc(-c2nc(N3CCN(C(=O)N4N=CC[C@H]4c4cc(F)cc(C#N)c4)CC3)ccc2F)s1 [Compound 172, (S)-3-fluoro-5-(1-(4-(5-fluoro-6-(5-methyl-1,3,4-thiadiazol-2-yl)pyridin-2-yl)piperazine-1-carbonyl)-4,5-dihydro-1H-pyrazol-5-yl)benzonitrile]",0.0001 to 0.1
8,"COc1cnc(N2CCN(C(=O)N3N=CC[C@H]3c3cc(F)cc(C#N)c3)CC2)nc1-c1ncnn1C [Compound 150, (S)-3-fluoro-5-(1-(4-(5-methoxy-4-(1-methyl-1H-1,2,4-triazol-5-yl)pyrimidin-2-yl)piperazine-1-carbonyl)-4,5-dihydro-1H-pyrazol-5-yl)benzonitrile]",0.0001 to 0.1
9,"Cc1nn(-c2cc(N3CCN(C(=O)N4N=CC[C@H]4c4cc(F)cc(F)c4)CC3)ncn2)c(C)c1C(N)=O [Compound 281, (S)-1-(6-(4-(5-(3,5-difluorophenyl)-4,5-dihydro-1H-pyrazole-1-carbonyl)piperazin-1-yl)pyrimidin-4-yl)-3,5-dimethyl-1H-pyrazole-4-carboxamide]",0.0001 to 0.1
